This note sets out measurements from patent publication US20240247080A1, “GLP1/GIP/NPY2 RECEPTOR TRIPLE AGONISTS” (Boehringer Ingelheim International GmbH, priority 2022, published 2024).

Read-outs that look alike come from different tables or passages of the source. Starred links: 1 amine or outer side, 2 acyl side, 3 side chain; linkers in the order of their positions; H or OH if unused. Positions of bridges follow the written chain, without caps; N, C: chain ends. Non-standard residues stand in square brackets, D forms with d. Groups on a side chain read outwards from the residue. Chains are numbered I, II in the order given. No end group written: not given here. *: point of attachment. C20 diacid = O=C(O)CCCCCCCCCCCCCCCCCCC(=O)*; C18 diacid = O=C(O)CCCCCCCCCCCCCCCCC(=O)*; γGlu = O=C(O)[C@H](CCC(=O)[*:2])N[*:1]; εLys = N[C@@H](CCCCN[*:1])C(=O)[*:2]; β3hQ = NC(=O)CC[C@H](N)CC(=O)O; AEEA = NCCOCCOCC(=O)O; Aib = CC(C)(N)C(=O)O Bounds are passed on as bounds.

Common to all, as to type: cell-based
Conditions in all cases: CreLuc reporter gene assay

Assay [1] concerns the target T1, hGLP1R (Homo sapiens, UniProt P43220).
T1 construct: expressed in transfected cells; host or cells: HEK-293 cells carrying a CRE-luciferase reporter gene
Briefly: hGLP1R CreLuc reporter gene assay in 0.5% and 100% plasma. In a few lines:
(§1)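 HEK cells (GLP-1R, NPY2R) or CHO cells (GIPR) carrying a CRE-luciferase reporter, incubated 4 h at 37 °C with peptides in HBSS/20 mM HEPES pH 7.4 plus 0.5% human plasma, or in 100% plasma. Luminescence read; EC50 from 8-point variable-slope sigmoid fits.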

Assay [2] has as its target T2, hGIPR (Homo sapiens, UniProt P48546).
T2 construct: expressed in transfected cells; host or cells: CHO cells carrying a CRE-luciferase reporter gene
T2 sequence (P48546 22-466): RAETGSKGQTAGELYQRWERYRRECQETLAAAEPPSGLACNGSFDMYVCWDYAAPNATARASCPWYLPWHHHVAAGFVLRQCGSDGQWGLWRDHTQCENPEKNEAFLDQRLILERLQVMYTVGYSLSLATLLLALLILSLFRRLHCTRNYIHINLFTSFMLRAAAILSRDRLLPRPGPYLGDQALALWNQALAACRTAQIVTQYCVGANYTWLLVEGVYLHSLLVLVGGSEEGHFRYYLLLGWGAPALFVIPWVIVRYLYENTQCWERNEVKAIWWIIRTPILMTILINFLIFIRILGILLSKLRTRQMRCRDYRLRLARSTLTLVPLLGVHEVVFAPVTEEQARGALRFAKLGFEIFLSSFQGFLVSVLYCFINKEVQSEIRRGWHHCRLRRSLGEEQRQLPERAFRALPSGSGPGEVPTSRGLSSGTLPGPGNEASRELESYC
Briefly: hGIPR CreLuc reporter gene assay in 0.5% and 100% plasma. An outline of the steps:
as §1

The target in assay [3] is T3, hNPY2R (Homo sapiens, UniProt P49146).
T3 construct: expressed in transfected cells; host or cells: HEK-293 cells carrying a CRE-luciferase reporter gene
T3 sequence (P49146 1-381): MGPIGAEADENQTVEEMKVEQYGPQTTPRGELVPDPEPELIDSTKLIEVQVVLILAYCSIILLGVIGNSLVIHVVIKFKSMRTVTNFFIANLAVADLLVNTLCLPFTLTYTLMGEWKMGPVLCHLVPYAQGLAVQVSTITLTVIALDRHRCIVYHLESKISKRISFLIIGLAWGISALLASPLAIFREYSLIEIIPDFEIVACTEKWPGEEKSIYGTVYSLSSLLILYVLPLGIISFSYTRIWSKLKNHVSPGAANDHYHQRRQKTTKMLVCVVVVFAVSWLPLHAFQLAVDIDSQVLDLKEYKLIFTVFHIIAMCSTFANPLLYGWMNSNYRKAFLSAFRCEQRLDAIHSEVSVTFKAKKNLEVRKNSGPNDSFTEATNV
Briefly: hNPY2R CreLuc reporter gene assay in 0.5% and 100% plasma. An outline of the steps: as §1

The mark [4] stands for this setting: 0.5% human plasma, read-out: hGLP1R 0.5% hP.
[5] abbreviates: 0.5% human plasma, read-out: hGIPR 0.5% hP.
The mark [6] stands for this setting: 100% human plasma, read-out: hGIPR 100% hP.
The mark [7] stands for this setting: 0.5% human plasma, read-out: hNPY2R 0.5% hP.
The mark [8] stands for this setting: 100% human plasma, read-out: hNPY2R 100% hP.
The mark [9] stands for this setting: 100% human plasma, read-out: hGLP1R 100% hP.

T1 sequence (P43220 24-463): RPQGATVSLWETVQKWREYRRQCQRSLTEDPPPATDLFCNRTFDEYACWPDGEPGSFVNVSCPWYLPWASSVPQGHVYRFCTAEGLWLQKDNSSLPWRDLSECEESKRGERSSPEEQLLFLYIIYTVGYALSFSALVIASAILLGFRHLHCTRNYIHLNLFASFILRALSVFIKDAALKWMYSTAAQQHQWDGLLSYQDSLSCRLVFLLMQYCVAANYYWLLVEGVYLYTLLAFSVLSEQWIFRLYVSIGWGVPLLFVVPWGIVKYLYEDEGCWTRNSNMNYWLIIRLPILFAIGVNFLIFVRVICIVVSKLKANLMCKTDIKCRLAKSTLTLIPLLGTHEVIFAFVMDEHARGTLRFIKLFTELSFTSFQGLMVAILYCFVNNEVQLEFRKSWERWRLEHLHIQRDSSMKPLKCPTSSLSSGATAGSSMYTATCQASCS

Regarding “H-Y[Aib]EGTFTSDYSI[Aib]LEKQAQ[Aib]AFVEWLIK([εLys-γGlu-γGlu-γGlu-γGlu-γGlu-γGlu-C20 diacid])GGPSSGASLRHYY[Aib]WLTRQRY-NH2 [Compound 213, Y-Aib-E-G-T-F-T-S-D-Y-S-I-Aib-L-E-K-Q-A-Q-Aib-A-F-V-E-W-L-I-K(1,3)-G-G-P-S-S-G-A-S-L-R-H-Y-Y-Aib-W-L-T-R-Q-R-Y-NH2.C20DA-gGlu-gGlu-gGlu-gGlu-gGlu-gGlu-eLys(1,2)]”, the EC50 is 0.16 nM in assay [1] (setting [4]); 0.34 nM in assay [2] (setting [5]); 1.53 nM in assay [2] (setting [6]); over 100 nM in assay [3] (setting [7]); over 1000 nM in assay [3] (setting [8]).
Regarding “H-Y[Aib]EGTFTSDYSI[Aib]LEKQAQ[Aib]AFVEWLIK([εLys-γGlu-γGlu-γGlu-γGlu-γGlu-γGlu-C20 diacid])GGPSEGQSLRHYYNWLTRQRY-NH2 [Compound 227, Y-Aib-E-G-T-F-T-S-D-Y-S-I-Aib-L-E-K-Q-A-Q-Aib-A-F-V-E-W-L-I-K(1,3)-GGPSEGQSLRHYYNWLTRQRY-NH2.C20DA-gGlu-gGlu-gGlu-gGlu-gGlu-gGlu-eLys(1,2)]”, the EC50 in assay [1] (setting [4]) came out at 0.13 nM; in assay [1] (setting [9]), 3.07 nM; in assay [2] (setting [5]), 0.06 nM; in assay [2] (setting [6]), 1.23 nM; in assay [3] (setting [7]), 10.2 nM.
On the same counts, the results for “H-Y[Aib]EGTFTSDYSI[Aib]LEKQAQ[Aib]AFVEWLIK([AEEA-AEEA-γGlu-γGlu-γGlu-C18 diacid])GGPESGASLRHYYNWLTRQRY-NH2 [Compound 166, Y-Aib-E-G-T-F-T-S-D-Y-S-I-Aib-L-E-K-Q-A-Q-Aib-A-F-V-E-W-L-I-K(1,3)-GGPESGASLRHYYNWLTRQRY-NH2.C18DA-gGlu-gGlu-gGlu-OEG-OEG(1,2)]” are 0.07 nM, 4.24 nM, 0.08 nM, 0.64 nM and 12.5 nM.
With “H-Y[Aib]EGTFTSDYSI[Aib]LEKAAQ[Aib]AFVEWLIK([εLys-γGlu-γGlu-γGlu-γGlu-γGlu-γGlu-C20 diacid])GGPSSGASLRHYYNWLTRQRY-NH2 [Compound 136, Y-Aib-E-G-T-F-T-S-D-Y-S-I-Aib-L-E-K-A-A-Q-Aib-A-F-V-E-W-L-I-K(1,3)-GGPSSGASLRHYYNWLTRQRY-NH2.C20DA-gGlu-gGlu-gGlu-gGlu-gGlu-gGlu-eLys(1,2)]”, the EC50 in assay [1] (setting [4]) was found to be 0.32 nM; in assay [2] (setting [5]), 0.31 nM; in assay [2] (setting [6]) it was 2.03 nM; in assay [3] (setting [7]) it was 15.1 nM; in assay [3] (setting [8]), 64.7 nM.
Regarding “Y[Aib]EGTFTSDYSI[Aib]LEKQAE[Aib]AFVEWLIK([AEEA-AEEA-γGlu-γGlu-γGlu-γGlu-C18 diacid])GGPSSGASLRHYYNWLTRQRY-NH2 [Compound 150, Y-Aib-E-G-T-F-T-S-D-Y-S-I-Aib-L-E-K-Q-A-E-Aib-A-F-V-E-W-L-I-K(1,3)-GGPSSGASLRHYYNWLTRQRY-NH2.C18DA-gGlu-glu-Glu-Glu-OEG-OEG(1,2)]”, the EC50 in assay [1] (setting [4]) is 0.31 nM; in assay [2] (setting [5]), 0.27 nM; in assay [3] (setting [7]) it was 16.7 nM.
As for “H-Y[Aib]EGTFTSDYSI[Aib]LEKQAQ[Aib]AFVEWLIK([εLys-γGlu-γGlu-γGlu-γGlu-γGlu-C18 diacid])GGPSEPASLRHYYNWLTRQRY-NH2 [Compound 263, Y-Aib-E-G-T-F-T-S-D-Y-S-I-Aib-L-E-K-Q-A-Q-Aib-A-F-V-E-W-L-I-K(1,3)-GGPSEPASLRHYYNWLTRQRY-NH2.C18DA-gGlu-gGlu-gGlu-gGlu-gGlu-eLys(1,2)]”, the EC50 in assay [1] (setting [4]) worked out at 0.32 nM; in assay [2] (setting [5]), 0.12 nM; in assay [2] (setting [6]), 1.5 nM; in assay [3] (setting [7]), 15.8 nM.
Consider “I: H-Y[Aib]EGTFTSDYSI[Aib]LEKQAQ[Aib]AFVQWLIKGGPESGASLRHYYNWLTRQRY-NH2 / II: {C18 diacid}-EEEEE[εLys] (amide I:28-II:C) [Compound 63, Y-Aib-E-G-T-F-T-S-D-Y-S-I-Aib-L-E-K-Q-A-Q-Aib-A-F-V-Q-W-L-I-K(1,3)-GGPESGASLRHYYNWLTRQRY-NH2.C18DA-E-E-E-E-E-eLys(1,2)]”, for which the EC50 was found to be 0.08 nM in assay [1] (setting [4]), 0.13 nM in assay [2] (setting [5]), 0.89 nM in assay [2] (setting [6]) and 15.2 nM in assay [3] (setting [7]).
As for “Y[Aib]EGTFTSDYSI[Aib]LEKQAQ[Aib]AFVEWLIK([AEEA-AEEA-γGlu-γGlu-γGlu-γGlu-γGlu-C20 diacid])GGPSSPASLRHYYNWLTRQRY-NH2 [Compound 120, Y-Aib-E-G-T-F-T-S-D-Y-S-I-Aib-L-E-K-Q-A-Q-Aib-A-F-V-E-W-L-I-K(1,3)-GGPSSPASLRHYYNWLTRQRY-NH2.C20DA-gGlu-gGlu-gGlu-gGlu-gGlu-OEG-OEG(1,2)]”, the EC50 in assay [1] (setting [4]) amounted to 0.11 nM; in assay [2] (setting [5]), 0.34 nM; in assay [2] (setting [6]), 1.44 nM; in assay [3] (setting [7]), 10.7 nM; in assay [3] (setting [8]), 39.2 nM.
On to “H-Y[Aib]EGTFTSDYSI[Aib]LEKQAQ[Aib]AFVQWLIK([γGlu-γGlu-γGlu-γGlu-γGlu-γGlu-C18 diacid])GGPSEGASLRHYYNWLTRQRY-NH2 [Compound 252, Y-Aib-E-G-T-F-T-S-D-Y-S-I-Aib-L-E-K-Q-A-Q-Aib-A-F-V-Q-W-L-I-K(1,3)-GGPSEGASLRHYYNWLTRQRY-NH2.C18DA-gGlu-gGlu-gGlu-gGlu-gGlu-gGlu(1,2)]”, for which the EC50 in assay [1] (setting [4]) was found to be 0.1 nM; in assay [1] (setting [9]), 2.59 nM; in assay [2] (setting [5]) it was 0.29 nM; in assay [2] (setting [6]), 1.25 nM; in assay [3] (setting [8]), 33.5 nM.
Consider “H-Y[Aib]EGTFTSDYSI[Aib]LEKQAQ[Aib]EFVEWLIK([AEEA-AEEA-γGlu-C18 diacid])GGPSEGASLRHYYNWLTRQRY-NH2 [Compound 282, Y-Aib-E-G-T-F-T-S-D-Y-S-I-Aib-L-E-K-Q-A-Q-Aib-E-F-V-E-W-L-I-K(1,3)-GGPSEGASLRHYYNWLTRQRY-NH2.C18DA-gGlu-OEG-OEG(1,2)]”, for which the EC50 was 0.51 nM in assay [1] (setting [4]), 0.17 nM in assay [2] (setting [5]), 1.03 nM in assay [2] (setting [6]) and 17.3 nM in assay [3] (setting [7]).
On the same counts, the results for “H-Y[Aib]EGTFTSDYSI[Aib]LEKQAQ[Aib]AFVEWLIK([εLys-γGlu-γGlu-γGlu-γGlu-γGlu-γGlu-C20 diacid])GGPSEGASLRHYYNWLTR[β3hQ]RY-NH2 [Compound 277, Y-Aib-E-G-T-F-T-S-D-Y-S-I-Aib-L-E-K-Q-A-Q-Aib-A-F-V-E-W-L-I-K(1,3)-G-G-P-S-E-G-A-S-L-R-H-Y-Y-N-W-L-T-R-bHGln-R-Y-NH2.C20DA-gGlu-gGlu-gGlu-gGlu-gGlu-gGlu-eLys(1,2)]” are 0.19 nM, 0.11 nM, 0.68 nM and over 99.9 nM.
“H-Y[Aib]EGTFTSDYSI[Aib]LEKQAQ[Aib]AFVEWLIK([AEEA-AEEA-γGlu-γGlu-γGlu-γGlu-C18 diacid])GGPESGASLRHYYNWLTRQRY-NH2 [Compound 163, Y-Aib-E-G-T-F-T-S-D-Y-S-I-Aib-L-E-K-Q-A-Q-Aib-A-F-V-E-W-L-I-K(1,3)-GGPESGASLRHYYNWLTRQRY-NH2.C18DA-gGlu-gGlu-gGlu-gGlu-OEG-OEG(1,2)]”: the EC50 in assay [1] (setting [4]) amounted to 0.1 nM; in assay [2] (setting [5]), 0.26 nM; in assay [2] (setting [6]) it was 0.87 nM; in assay [3] (setting [7]), 21.3 nM; in assay [3] (setting [8]), 55.2 nM.
Regarding “H-Y[Aib]EGTFTSDYSI[Aib]LEKQAQ[Aib]AFVEWLIK([εLys-γGlu-γGlu-γGlu-γGlu-γGlu-γGlu-C20 diacid])GGPSEGQSIRHYYNWLTRQRY-NH2 [Compound 134, Y-Aib-E-G-T-F-T-S-D-Y-S-I-Aib-L-E-K-Q-A-Q-Aib-A-F-V-E-W-L-I-K(1,3)-GGPSEGQSIRHYYNWLTRQRY-NH2.C20DA-gGlu-gGlu-gGlu-gGlu-gGlu-gGlu-eLys(1,2)]”, the EC50 came out at 0.1 nM in assay [1] (setting [4]); 0.09 nM in assay [2] (setting [5]); 0.83 nM in assay [2] (setting [6]); 10.1 nM in assay [3] (setting [7]); 39.9 nM in assay [3] (setting [8]).
